The values that follow come from paper PMC10901950, “Neuroprotective and Anti-inflammatory Effects of Rubiscolin-6 Analogs with Proline Surrogates in Position 2” (Neurochemical Research, 2023).

Numbered stars: 1 amine (or outer) side, 2 acyl side, 3 side chain; on linkers, the order of the positions; unused ones are H or OH. Square brackets hold non-standard residues; d marks the D form. Ends that are not written are not given here. Peptide text beside a SMILES is read from it. Nip(3R) = O=C([C@@H]1CCCN([*:1])C1)[*:2]; Dmt = Cc1cc(O)cc(C)c1C[C@H](N)C(=O)O; Inp = O=C(O)C1CCNCC1

For data set [1], the system named is SH-SY5Y cells. In words: Intracellular ROS production in 6-OHDA-treated SH-SY5Y cells. Type of data set: cell-based, human. The following applies: 6-OHDA 100 µM; for decrease of ROS production stimulated by 6-OHDA: peptide at both 1 and 10 µM. Here is the method: The detection of ROS generated in injured cells was evaluated using the 5(6)-carboxy-2ʹ,7ʹ-dichlorofluorescein diacetate (carboxy-H2DCFDA) reagent (Invitrogen, Bleiswijk, Netherlands). After incubation, cells were washed with ice-cold Phosphate-Buffer Saline (PBS). Then, the carboxyl-H2DCFDA (100 µL, 20 µM) reagent was added and incubated for 1 h at 37 °C. Finally, the fluorescence intensity was measured at wavelengths of […], and ROS levels were presented in percentage of control (non-treated cells).

In data set [2] the test system is Caspase-3. The data set can be described thus: Caspase-3 activity in 6-OHDA-treated SH-SY5Y cells. Type of data set: cell-based, human. The following applies: 6-OHDA 100 µM, 6 h. The protocol: Caspase-3 activity was assessed using “Caspase-3 fluorometric assay” (Sigma, St. Louis, MO, USA) with minor changes adapted by Silva et al.. The cells were treated with 6-OHDA (100 µM) for 6 h in the presence or absence of peptides. After this period, the culture medium was removed, and cells were rinsed with ice-cold PBS and collected by centrifugation at 3300×g for 5 min. The pellets were resuspended in lysis buffer, incubated for about 20 min on ice and finally centrifuged at 22,500×g, 4 °C, for 20 min. Cell lysates were processed following the manufacturer’s protocol, and fluorescence was read at wavelengths of 360 nm (excitation) and 460 nm (emission). Caspase-3 activity was calculated through the curve slope and presented as Δ fluorescence (a.u.)/mg of protein/min). Staurosporine (STAU, 1 µM) was used as positive control.

The subject of data set [3] is LPS-stimulated RAW 264.7 cells. The data set can be described thus: Nitric oxide production in LPS-stimulated RAW 264.7 cells (Griess). The following applies: LPS 1 µg/mL, 24 h. Type of data set: cell-based, mouse. The protocol:
The level of NO production was determined in RAW 264.7 cells. Briefly, after cells attachment, they were treated with LPS (Millipore Sigma, Darmstadt, Germany) at 1 µg/mL for 24 h, and then the peptides were added for an additional 24 h. After cells’ treatment, the medium was collected, and the accumulation of NO metabolite in the cell culture supernatant was measured using Griess reagent (1% sulfanilamide and 0.1% naphthylethylenediamine dihydrochloride; Sigma Aldrich), where 50 µL of the supernatant was mixed with 50 µL of Griess reagent (40 mg/mL) in a 96-well plate. After incubation at room temperature and darkness for 10 min, the absorbance was measured at 540 nm. Cells treated with LPS without samples were used as the positive control of the inflammatory response.

The subject of data set [4] is LPS-stimulated RAW 264.7 cells. In words: Lipid peroxidation in LPS-stimulated RAW 264.7 cells (DPPP probe). Type of data set: cell-based, mouse. The following applies: 24 h; for decrease of membrane lipids' oxidation: lowest concentration used (0.1 µM). Here is the method:
The level of lipid peroxidation was evaluated after RAW 264.7 cells incubation with peptides for 24 h. Then, the cells were loaded with 50 µM diphenyl-1-pyrenylphosphine (DPPP) probe for 15 min, and fluorescence was read at 360 nm excitation and 460 nm emission wavelengths.

The test system of data set [5] is Male Swiss albino CD1 mice. The data set can be described thus: Spontaneous locomotor activity after icv injection. Type of data set: in vivo, mouse. The following applies: healthy mice, recording from 10 min after injection, 8-10 mice per group. Here is the method: Male Swiss albino CD1 mice (JANVIER LABS, Le Genest-Saint-Isle, France), weighing 20–26 g, were used in the in vivo experiments. The animals were housed in Makrolon cages (L: 40 cm, W: 25 cm, H: 18 cm; 20 mice/cage), with free access to a standard semisynthetic laboratory diet (RM3, SDS, DIETEX-France, Saint-Gratien, France). All animals were kept in a ventilated room, at a temperature of 22 ± 1 °C, under a 12-h light/12-h dark cycle (lights on between 7:00 a.m. and 7:00 p.m.).
Intracerebroventricular (icv) injections (10 µL/mouse) of R-6 and its analogs were performed in the left brain ventricle of manually immobilized mice, with a Hamilton microsyringe ([…], Hamilton, Bonaduz, Switzerland) connected to a needle (length: 3.5 mm, diameter: 0.5 mm), as described elsewhere. Intracerebroventricular injections were performed by an experienced investigator, who frequently controlled the regularity and success of the injections using a methylene blue dye and observed (after sacrifice and frontal brain sectioning) that the injection was successful in more than 95% of trials. It was also verified in several animals, after sacrifice, that the mark of the needle puncture on the parietal bone was located at least 1.5 mm behind the bregma and at least 2.5 mm before the lambda, with laterality between 1 and 2 mm relative to the brain median line. This corresponds to stereotaxic coordinates of the left lateral ventricle in Lehmann’s atlas for mice (Lehmann, 1974): anteriority 2.95e4.15 mm, laterality 0.95e2 mm, and depth 3e4.5 mm. All drugs for icv administration were dissolved in 0.9% NaCl just before treatment. The icv injection method was approved by the Regional Ethical Committee for Animal Experimentation (Normandy; no. N/10-04-04-12).
Tested peptides were dissolved in DMSO and diluted with saline solution to the desired concentrations.
Locomotor activity was assessed automatically in a computerized actimeter (Omnitech Electronics, Inc., Columbus, Ohio, USA) which monitored horizontal displacements and vertical movements. Ten minutes after the icv injection, mice were placed individually in 20 × 20 × 30 cm compartments in a dimly illuminated and quiet room, and then motor activity was recorded. The responses were expressed as the number of crossed beams by the mouse during three consecutive 20 min periods.

The nature of data set [6]: Oxygen radical absorption capacity (ORAC). The following applies: peptides 10 µM, AAPH 12 mM, fluorescein; mean ± SEM. The protocol: The ability of peptides to neutralize the peroxyl radicals was evaluated in ORAC according to the described method. Peptides (20 µL) and fluorescein (120 µL; 70 nM) were placed in a microplate well and pre-incubated for 15 min at 37 °C. Then, 60 µL of 2,2ʹ-azobis (2-amidino-propane) dihydrochloride (AAPH) as a radical generator was added in a final concentration of 12 mM. The fluorescence was read at wavelengths of 458 nm (excitation) and 520 nm (emission) and recorded every minute for 240 min. A blank using phosphate buffer instead of […] and a calibration curve using Trolox as standard (1–8 µM, final concentration) were also carried on in each assay. Final results were presented in µmol of Trolox equivalents/ µM peptide (µmol TE/ µM peptide).

[7] abbreviates: peptide 0.1 µM (lowest concentration).

Consider `Cc1cc(O)cc(C)c1C[C@H](N)C(=O)N1CCC[C@H]1C(=O)N[C@@H](CC(C)C)C(=O)N[C@@H](CC(=O)O)C(=O)N[C@@H](CC(C)C)C(=O)N[C@@H](Cc1ccccc1)C(=O)O` [analog 1, Dmt-Pro-Leu-Asp-Leu-Phe-OH] (H-[Dmt]PLDLF-OH), for which the “effect on ROS production” value in data set [1] (peptide 10 µM) is given as “couldn’t decrease”. Also, the “effect on Caspase-3 activity induced by 6-OHDA” value (“effect … by 6-OHDA” below) in data set [2] (peptide 10 µM) is reported as “showed the potency to suppress”.
Take `CC(C)C[C@H](NC(=O)C1CCN(C(=O)[C@@H](N)Cc2ccc(O)cc2)CC1)C(=O)N[C@@H](CC(=O)O)C(=O)N[C@@H](CC(C)C)C(=O)N[C@@H](Cc1ccccc1)C(=O)O` [analog 3, Tyr-Inp-Leu-Asp-Leu-Phe-OH] (H-Y[Inp]LDLF-OH): in data set [1] (6 h), the “decrease of ROS production stimulated by 6-OHDA” value is reported as “about 60%”. In addition, the “effect … by 6-OHDA” value in data set [2] (peptides 0.1-10 µM) is on record as “most efficiently”. The “effect on LPS-induced NO production” value in data set [3] (setting [7]) is “most effectively reduced”. Also, in data set [4], the “decrease of membrane lipids' oxidation” value was approximately 10%. Besides, the “effect on spontaneous (horizontal) locomotor activity” value (“effect on spontaneous” below) in data set [5] was “do not affect locomotor activity”.
For the compound `Cc1cc(O)cc(C)c1C[C@H](N)C(=O)N1CCC[C@@H](C(=O)N[C@@H](CC(C)C)C(=O)N[C@@H](CC(=O)O)C(=O)N[C@@H](CC(C)C)C(=O)N[C@@H](Cc2ccccc2)C(=O)O)C1` [analog 4, Dmt-(R)-Nip-Leu-Asp-Leu-Phe-OH] (H-[Dmt][Nip(3R)]LDLF-OH), the “effect on LPS-induced NO production” value in data set [3] (setting [7]) is “most effectively reduced”.
Regarding `Cc1cc(O)cc(C)c1C[C@H](N)C(=O)N1CCC(C(=O)N[C@@H](CC(C)C)C(=O)N[C@@H](CC(=O)O)C(=O)N[C@@H](CC(C)C)C(=O)N[C@@H](Cc2ccccc2)C(=O)O)CC1` [analog 5, Dmt-Inp-Leu-Asp-Leu-Phe-OH] (H-[Dmt][Inp]LDLF-OH), the “decrease of ROS production stimulated by 6-OHDA” value in data set [1] (6 h) is “about 60%”. For the same compound, the “effect … by 6-OHDA” value in data set [2] (peptides 0.1-10 µM) was “active only at the highest dose”. For the same compound, the “effect on LPS-induced NO production” value in data set [3] (setting [7]) is “most effectively reduced”; in data set [3] (peptide 10 µM), “comparable to the level determined in unstimulated cells”. Moreover, the inhibition of peroxidation result in data set [4] (0.1 µM) is given as “most significant inhibition”. Further, the “decrease of membrane lipids' oxidation” value in data set [4] is on record as approximately 10%. Besides, the “effect on spontaneous” value in data set [5] is “do not affect locomotor activity”.
`CC(C)C[C@H](NC(=O)C1CCN(C(=O)[C@@H](N)Cc2ccc(O)cc2)CC1)C(=O)N[C@@H](CC(=O)O)C(=O)N[C@@H](CC(C)C)C(=O)N[C@@H](Cc1ccccc1)C(N)=O` [analog 7, Tyr-Inp-Leu-Asp-Leu-Phe-NH2] (H-Y[Inp]LDLF-NH2): in data set [1] (6 h), the “decrease of ROS production stimulated by 6-OHDA” value was “about 60%”. Further, in data set [2] (peptides 0.1-10 µM), the “effect … by 6-OHDA” value is reported as “most efficiently”. Also, the “NO level reached (relative to unstimulated control)” value in data set [3] (LPS alone exceeded 330%) is recorded as approximately 125%. The “effect on LPS-induced NO production” value in data set [3] (setting [7]) is recorded as “most effectively reduced”. Moreover, the “decrease of membrane lipids' oxidation” value in data set [4] is listed as approximately 10%. For the same compound, in data set [5], the “effect on spontaneous” value was “do not affect locomotor activity”.
As to YPLDLF [R-6, rubiscolin-6], in data set [6], the “ORAC, ability to neutralize the peroxyl radicals” value is on record as 2789 ± 131.6 µmol Eq. Trolox/g of peptide. Further, the “decrease of intracellular ROS levels stimulated by 6-OHDA” value in data set [1] (peptide 0.1 µM, 6 h) was “about 70%”. For the same compound, the “effect … by 6-OHDA” value in data set [2] (peptides 0.1-10 µM) is “didn’t decrease”. In data set [4] (0.1-10 µM), the “effect on lipid peroxidation” value is recorded as “no effect”. Besides, the “effect on spontaneous” value in data set [5] is “do not affect locomotor activity”.
As for “YPLDLF-NH2 [analog 6, Tyr-Pro-Leu-Asp-Leu-Phe-NH2]”, in data set [6], the “ORAC, ability to neutralize the peroxyl radicals” value is 3143 ± 164.4 µmol Eq. Trolox/g of peptide.
